Four molecules from patent US12208111B2 (LUNELLA BIOTECH, INC., priority 2018, dated 2025) can be followed below.

Read-outs that look alike come from different tables or passages of the source.

What all share (format): cell-based, human
In series [1] the test system is senescent MRC-5 cells. The experiment in a line: xCELLigence real-time cell analysis, senescent (BrdU-treated) MRC-5 fibroblasts. The conditions noted are these: 90 μM, 5 days after BrdU wash out. From the text:
(§1) In further application of the present approach, the selectivity of azithromycin towards senescent cells was validated using the xCELLigence system. Because senescent cells undergo the so-called senescence-associated secretory phenotype (SASP), which involves dramatic increases in the synthesis and secretion of proteins, the inventors assessed whether the protein measurement assay system under-estimates the senolytic activity of tested compounds. […] The normalized cell index for the control was noticeably higher immediately after treatment, and coincided with the BrdU-only curve until about hour 235. […] For the data shown in FIGS. 9A and 9B, the **** indicates p<0.001. The real-time xCELLigence assay system thus compliments the more static SRB assay, and offers a more direct visualization of the potential senolytic effects of compounds during drug screening. The xCELLigence assays were also used to confirm senolytic activity for roxithromycin and telithromycin. […] MRC-5 fibroblasts were used for these assays. […] Note that in FIG. 10A. * indicates p<0.01. From top to bottom at time 249 hours, the lines represent the control, BrdU-only, Control with roxithromycin (90 μM), and BrdU with roxithromycin. […] The same approach was used to confirm senolytic activity for telithromycin. […] This approach allows the quantification of the onset and kinetics of the cellular response. […]

Series [2] has as its system senescent MRC-5 cells. Kind of series: SRB assay, viability of BrdU-induced senescent MRC-5 fibroblasts. Here is the method: (§2) Bromodeoxyuridine (5-bromo-2′-deoxyuridine), also known as BrdU, may be used to induce senescence. BrdU is an analog of the nucleoside thymidine commonly used to identify proliferating cells. BrdU induces controlled DNA damage, and drives cells towards senescence with high efficiency. The BrdU assay of the present approach calls for subjecting normal fibroblasts to prolonged culture (8-days) in the presence of BrdU at 100 μM to induce controlled DNA-damage and senescence. […] Then, isogenically-matched cultures of normal and senescent fibroblasts may be used for drug screening to identify drugs having senolytic activity. Senolytic activity may be detected using the sulforhodamine B assay, also known in the art as the SRB assay. This assay measures the amount of protein remaining attached to the tissue-culture dishes, and is a surrogate marker for cell viability. This approach may be used to rapidly screen compounds, including clinically-approved drugs, such as, for example, antibiotics. […] It should be appreciated that the present approach may be used to screen other compounds.
After that, the SRB assay was performed to determine the effects of the drug on cell viability. […] The scale bar in the upper-right of FIGS. 3B and 3C represents 20 μm.
After the 5-day exposure, the SRB assay was performed to determine the effects of the drug on cell viability. […] The * indicates p<0.05 in FIG. 4.
MRC-5 or BJ cells were plated into 24-well plates. Next day, half of the plate was treated with 100 μM of BrdU while control wells were treated with vehicle only (DMSO) and incubated for 8 days at 37° C. in a 5% CO2 humidified atmosphere. […] BrdU is washed out before the drug treatments.
Sulphorhodamine B assay: After the incubation of the plates cell viability was measured by Sulphorhodamine B assay (SRB). The assay is based on the measurement of cellular protein contents. Cells were fixed with 10% Trichloroacetic acid (TCA) for 1 hour at 4 °C, and were dried overnight at room temperature. Then, plates were incubated with SRB for 30 min, washed twice with 1% acetic acid and air dried for at least 1 h. Finally, the protein-bound dye was dissolved in a 10 mM Tris, pH 8.8, solution and read using a plate reader at 540-nm.
On the technique in general: Sulforhodamine B stains cellular protein and so reports cell mass.

For series [3], the system named is normal MRC-5 lung fibroblasts. Kind of series: SRB assay, viability of normal MRC-5 fibroblasts. As to conditions: 100 μM, 5 days. Here is the method:
as §2, with “compounds. […]” for “compounds.”
Sulphorhodamine B assay: After the incubation of the plates cell viability was measured by Sulphorhodamine B assay (SRB). […] Finally, the protein-bound dye was dissolved in a 10 mM Tris, pH 8.8, solution and read using a plate reader at 540-nm.

Series [4] relates to normal control MRC-5 cells. The experiment in a line: xCELLigence real-time cell analysis, normal MRC-5 fibroblasts. As to conditions: 90 μM.
Description: as §1

For a further series, the system named is MRC-5 cells. Kind of series: Beta-galactosidase staining. The conditions noted are these: 8 days of BrdU treatment. Here is the method: Furthermore, the inventors validated the use of BrdU-induced DNA-damage as being sufficient to induce cellular senescence. […] The results evidence that the cells treated with BrdU underwent cell cycle arrest, as evidenced by both a ˜70% reduction in the number of cells in S-phase, and the induction of beta-galactosidase activity.
Beta-Gal staining: Beta-Galactosidase staining of BrdU-treated MRC-5 cells was performed by Senescence B-Galactosidase Staining Kit (#9860, Cell Signalling Technology Inc.) and was done according to manufacturer's protocol.

The test system of another series is MRC-5 fibroblasts. The experiment in a line: DNA synthesis / cell cycle, Muse cell cycle kit. As to conditions: two-day treatment with BrdU. Here is the method:
The […] […] Autophagy and Cell cycle analysis: Autophagy (using MuseTMM Autophagy LC3-antibody based Kit, Merck Millipore) and cell cycle (Muse® Cell Cycle Kit, Merck Millipore) experiments were performed according to manufacturer's instructions.

For the molecule `CC[C@H]1OC(=O)[C@H](C)[C@@H](O[C@H]2C[C@@](C)(OC)[C@@H](O)[C@H](C)O2)[C@H](C)[C@@H](O[C@@H]2O[C@H](C)C[C@H](N(C)C)[C@H]2O)[C@](C)(O)C[C@@H](C)/C(=N\OCOCCOC)[C@H](C)[C@@H](O)[C@]1(C)O` [Roxithromycin, roxithromycin], in the series on senescent MRC-5 cells [1], the “senescent MRC-5 cells targeted (final cell index)” value was 82%. Further, in the series with senescent MRC-5 cells [2] (50 μM), the “Viability of senescent MRC-5 cells (% versus control)” value (from here on “Viability … (% versus control)”) worked out at 100%. In addition, the “effect on senescent MRC-5 cell viability” value with senescent MRC-5 cells [2] (50 μM, 5 days) is given as “no effect”. Moreover, in the series with senescent MRC-5 cells [2] (100 μM), the “Viability … (% versus control)” value is recorded as 30.99% and the “senolytic activity in the screening assay” value (“senolytic activity” for short) is recorded as “have senolytic activity”. Besides, in series [3], the “effect on viability of normal MRC-5 fibroblasts” value was “small effect”. Besides, the “effect on viability of normal MRC-5 fibroblasts (final cell index)” value in series [4] is listed as “minimal effect”.

Regarding `O=c1[nH]c(=O)n([C@H]2C[C@H](O)[C@@H](CO)O2)cc1Br` [BrdU, 5-bromo-2′-deoxyuridine], in the series on MRC-5 cells, the “beta-galactosidase staining (biomarker of cellular senescence)” value is “positively stained”. Moreover, the “reduction of DNA synthesis” value with MRC-5 fibroblasts is given as about 70%.

In the case of `CC[C@H]1OC(=O)[C@H](C)[C@@H](O[C@H]2C[C@@](C)(OC)[C@@H](O)[C@H](C)O2)[C@H](C)[C@@H](O[C@@H]2O[C@H](C)C[C@H](N(C)C)[C@H]2O)[C@](C)(O)C[C@@H](C)C(=O)[C@H](C)[C@@H](O)[C@]1(C)O` [Erythromycin, erythromycin], in the series with senescent MRC-5 cells [2], the “senolytic activity” value was “did not show any senolytic activity”. Also, the “Viability … (% versus control)” value with senescent MRC-5 cells [2] (50 μM) and in the series with senescent MRC-5 cells [2] (100 μM) was 100% in each case.

For the molecule `CC[C@H]1OC(=O)[C@H](C)C(=O)[C@H](C)[C@@H](O[C@@H]2O[C@H](C)C[C@H](N(C)C)[C@H]2O)[C@](C)(OC)C[C@@H](C)C(=O)[C@H](C)[C@H]2N(CCCCn3cnc(-c4cccnc4)c3)C(=O)O[C@]12C` [Telithromycin, telithromycin], the “senescent MRC-5 cells targeted (final cell index)” value with senescent MRC-5 cells [1] was determined as 100%. The “senolytic activity” value with senescent MRC-5 cells [2] is “showed beneficial senolytic activity”. Besides, the “effect on viability of normal MRC-5 fibroblasts (final cell index)” value in series [4] was “negligible impact”.
